Where “and” joins values, the source holds several entries; their conditions need not be identical. Identical values can stand only once.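 The compound was tested at five concentrations on cells cultured in 96-well plates, with a 48-hour exposure period. GI50 = concentration required for 50% inhibition of growth. TGI: total growth inhibition.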 Where only a bound is given, the exact number is not on record here.

Test systems include COLO 205 colon; HCT-15 colon; HL-60(TB) leukemia; LOX IMVI melanoma; OVCAR-3 ovarian; SF-539 CNS; SK-MEL-2 melanoma; SK-MEL-28 melanoma; SNB-75 CNS; SR leukemia.
What all share (assay): NCI anticancer screen, dose series, 48 h

On to `CCCCCCCCCCN1CCC(N2CCCCC2)CC1`, for which the GI50 is 1300 nM in the experiment on COLO 205 colon; 1380 nM in the experiment with HCT-15 colon; 1100 nM in the experiment with HL-60(TB) leukemia; 1230 nM in the experiment on LOX IMVI melanoma; 4640 nM in the experiment on OVCAR-3 ovarian; 1480 nM in the experiment on SF-539 CNS. Further, the GI50 is 2.43 µM in the experiment on SK-MEL-2 melanoma, 1780 nM with SK-MEL-28 melanoma, 2060 nM in the experiment on SNB-75 CNS and 627 nM in the experiment on SR leukemia. The TGI in the experiment on COLO 205 colon is 2.56 µM; with HCT-15 colon it was 3.73 µM; with HL-60(TB) leukemia, 3.77 µM; in the experiment on LOX IMVI melanoma it was 2.47 µM; in the experiment with OVCAR-3 ovarian it was 16.6 µM; in the experiment on SF-539 CNS, 2.88 µM. Besides, the TGI in the experiment on SK-MEL-2 melanoma is 6.29 µM; in the experiment on SK-MEL-28 melanoma, 3.41 µM; in the experiment on SNB-75 CNS it was 6.12 µM; with SR leukemia it was 2.98 µM.
Consider `CCCCCCCCCCCCOC1C(C(CC(=O)NCCN2CCCC2)NS(=O)(=O)c2cc(Cl)cc(Cl)c2)OC2OC(C)(C)OC21` (configuration not stated), for which the GI50 in the experiment on COLO 205 colon was 2060 nM and 1190 nM; in the experiment with HCT-15 colon, 1710 nM; with HL-60(TB) leukemia it was 1640 nM; in the experiment with LOX IMVI melanoma it was 1900 nM; with OVCAR-3 ovarian it was 1870 nM; in the experiment on SF-539 CNS it was 2010 nM. Further, the GI50 with SK-MEL-2 melanoma was 2.63 µM; in the experiment with SK-MEL-28 melanoma, 1940 nM and 1590 nM; in the experiment on SNB-75 CNS, 1900 nM and 1420 nM; with SR leukemia, 1480 nM. Also, the TGI was 4.4 µM and 2.66 µM in the experiment on COLO 205 colon; 3.18 µM in the experiment with HCT-15 colon; 3.76 µM in the experiment with HL-60(TB) leukemia; 3.5 µM in the experiment on LOX IMVI melanoma; 3.72 µM with OVCAR-3 ovarian; 3.48 µM in the experiment with SF-539 CNS. Moreover, the TGI in the experiment with SK-MEL-2 melanoma was 4.95 µM; in the experiment on SK-MEL-28 melanoma, 3.55 µM and 3.1 µM; in the experiment with SNB-75 CNS it was 3.56 µM and 2.86 µM; with SR leukemia, 3.83 µM.
With `CN1CCN(c2ccc(Nc3ncc4cc(C#N)c(=O)n(C5CCCC5)c4n3)cc2)CC1`, the GI50 in the experiment on COLO 205 colon is 797 nM; with HCT-15 colon, 940 nM; in the experiment with HL-60(TB) leukemia it was 595 nM; in the experiment with LOX IMVI melanoma, 580 nM; in the experiment on OVCAR-3 ovarian it was 2940 nM; in the experiment with SF-539 CNS, 1280 nM. The GI50 in the experiment on SK-MEL-2 melanoma was 4.87 µM; in the experiment on SK-MEL-28 melanoma it was 3540 nM; in the experiment with SNB-75 CNS it was 336 nM; in the experiment on SR leukemia it was 661 nM. Besides, the TGI in the experiment on COLO 205 colon was more than 100 µM; in the experiment with HCT-15 colon it was more than 100 µM; in the experiment with HL-60(TB) leukemia, 4.2 µM; in the experiment on LOX IMVI melanoma, 3.51 µM; in the experiment with OVCAR-3 ovarian it was more than 24.2 µM; in the experiment on SF-539 CNS it was 3.27 µM. In addition, the TGI in the experiment on SK-MEL-2 melanoma is more than 62.8 µM; in the experiment with SK-MEL-28 melanoma it was more than 100 µM; with SNB-75 CNS it was 3.8 µM; with SR leukemia, 3.86 µM.
For the compound `O=C(NO)c1ccc(CN(c2cnccn2)c2cnccn2)cc1`, the GI50 was 2960 nM in the experiment with COLO 205 colon; 18500 nM with HCT-15 colon; 26600 nM with HL-60(TB) leukemia; 3690 nM in the experiment on LOX IMVI melanoma; 11700 nM with OVCAR-3 ovarian; 14100 nM with SF-539 CNS. In addition, the GI50 is 12.2 µM with SK-MEL-2 melanoma, 11000 nM with SK-MEL-28 melanoma, 14600 nM with SNB-75 CNS and 6220 nM in the experiment on SR leukemia. The TGI with COLO 205 colon was 8.17 µM; in the experiment with HCT-15 colon, 46.8 µM; in the experiment with HL-60(TB) leukemia, 82.7 µM; in the experiment on LOX IMVI melanoma, 18.1 µM; with OVCAR-3 ovarian it was 30 µM; in the experiment with SF-539 CNS, 34.6 µM. For the same compound, the TGI in the experiment with SK-MEL-2 melanoma was 27 µM; in the experiment with SK-MEL-28 melanoma, 36.4 µM; with SNB-75 CNS it was 38.7 µM; with SR leukemia, more than 100 µM.
`CC(C(=O)n1c2ccccc2c2ccccc21)N(c1ccccc1)c1ccccc1` (configuration not stated): the TGI turned out to be 32 µM with COLO 205 colon; 32.8 µM in the experiment on HCT-15 colon; 20.6 µM in the experiment on HL-60(TB) leukemia; 30.6 µM in the experiment with LOX IMVI melanoma; 31.7 µM in the experiment on OVCAR-3 ovarian; 34.7 µM in the experiment with SF-539 CNS. For the same compound, the TGI with SK-MEL-2 melanoma was 28.4 µM; in the experiment on SK-MEL-28 melanoma it was 34.4 µM; with SNB-75 CNS, 37.8 µM; with SR leukemia it was 27.7 µM.
Consider `O=C(OCc1ccc2c(Cl)cc(Cl)c(O)c2n1)N1CCN(C(=O)c2cc3cc(F)ccc3[nH]2)CC1`, for which the GI50 with COLO 205 colon is 38700 nM; in the experiment on HCT-15 colon it was 1140 nM; with HL-60(TB) leukemia, 1060 nM; with LOX IMVI melanoma, 453 nM; in the experiment with OVCAR-3 ovarian, 501 nM; in the experiment with SF-539 CNS, 403 nM. The GI50 in the experiment with SK-MEL-2 melanoma is 3.23 µM; with SK-MEL-28 melanoma it was 87000 nM; in the experiment with SNB-75 CNS, 2850 nM; with SR leukemia, 401 nM. The TGI is more than 100 µM with COLO 205 colon; more than 100 µM in the experiment with HCT-15 colon; 3.53 µM in the experiment with HL-60(TB) leukemia; more than 100 µM in the experiment on LOX IMVI melanoma; 3.7 µM in the experiment with OVCAR-3 ovarian; 3.02 µM with SF-539 CNS. Further, the TGI in the experiment on SK-MEL-2 melanoma, in the experiment with SK-MEL-28 melanoma, in the experiment on SNB-75 CNS and with SR leukemia was more than 100 µM throughout.
For `C=CCN1CC2CON(C(=O)C(OC)(c3ccccc3)C(F)(F)F)C2C1C(C)C` (configuration not stated), the GI50 in the experiment on COLO 205 colon is 26 µg/mL; with HCT-15 colon it was 35.6 µg/mL; in the experiment on HL-60(TB) leukemia, 6.09 µg/mL; with LOX IMVI melanoma, 26.6 µg/mL; in the experiment on OVCAR-3 ovarian, 36.3 µg/mL; in the experiment on SF-539 CNS it was 66.5 µg/mL. Further, the GI50 in the experiment with SK-MEL-2 melanoma is 27.8 µg/mL; with SK-MEL-28 melanoma it was 52.9 µg/mL; in the experiment with SNB-75 CNS it was 38.4 µg/mL; in the experiment with SR leukemia, 11.1 µg/mL. The TGI was 23.3 µg/mL with HL-60(TB) leukemia and 65.1 µg/mL with SR leukemia.
For `CC(=O)OCCOCNC(=S)N/N=C/c1ccc(Br)s1`, the TGI in the experiment with COLO 205 colon was more than 100 µM; in the experiment on HCT-15 colon, more than 100 µM; in the experiment with HL-60(TB) leukemia, more than 40.2 µM; in the experiment with LOX IMVI melanoma it was more than 100 µM; with OVCAR-3 ovarian it was more than 100 µM; in the experiment with SF-539 CNS it was more than 100 µM. Further, the TGI with SK-MEL-2 melanoma, with SK-MEL-28 melanoma, in the experiment with SNB-75 CNS and in the experiment with SR leukemia was more than 100 µM throughout.
On to `Cc1ncc([N+](=O)[O-])n1CCNS(=O)(=O)CCCn1ncnc1[N+](=O)[O-]`, for which the TGI in the experiment with COLO 205 colon, with HCT-15 colon, in the experiment on HL-60(TB) leukemia, in the experiment with LOX IMVI melanoma, in the experiment on OVCAR-3 ovarian and in the experiment on SF-539 CNS was more than 100 µM each time. Besides, the TGI in the experiment on SK-MEL-2 melanoma, in the experiment on SK-MEL-28 melanoma, in the experiment with SNB-75 CNS and in the experiment with SR leukemia was more than 100 µM throughout.
